The subject of assay [1] is Transient receptor potential cation channel subfamily M member 8 (Homo sapiens), Q7Z2W7 [Y745H]. To be noted: HEK293, 100 uM.
The test system of assay [2] is Transient receptor potential cation channel subfamily M member 8 (Homo sapiens), Q7Z2W7 [L1009R]. To be noted: HEK293, 100 uM.
Assay [3] is described as follows: Binding affinity to human TRPM8 S4b_M mutant expressed in HEK293 cell membranes.
The subject of assay [4] is HEK293. The assay is described as follows: Displacement of [3H]menthol from human TRPM8 S4b_M5 mutant expressed in HEK293 cell membranes at 100 uM by scintillation counting. On the technique in general: Loss of bound radioactivity is the signal in a displacement assay; it reports binding, not function.
Assay [5] in a line: Activity at human TRPM8 S4b_M mutant expressed in HEK293 cells assessed as compound concentration causing leftward shift of voltage for half maximal activation. Type of assay: cell-based.

Activity calls are given as the source filed them. No cut-off for these calls is given here.

One may read the Kd as the constant that tells how readily two partners part at equilibrium. As a reminder, the EC50 is the midpoint of the concentration-response curve.

Sequence of Transient receptor potential cation channel subfamily M member 8 (Homo sapiens), Q7Z2W7 [Y745H] (Q7Z2W7 whole entry Y745H): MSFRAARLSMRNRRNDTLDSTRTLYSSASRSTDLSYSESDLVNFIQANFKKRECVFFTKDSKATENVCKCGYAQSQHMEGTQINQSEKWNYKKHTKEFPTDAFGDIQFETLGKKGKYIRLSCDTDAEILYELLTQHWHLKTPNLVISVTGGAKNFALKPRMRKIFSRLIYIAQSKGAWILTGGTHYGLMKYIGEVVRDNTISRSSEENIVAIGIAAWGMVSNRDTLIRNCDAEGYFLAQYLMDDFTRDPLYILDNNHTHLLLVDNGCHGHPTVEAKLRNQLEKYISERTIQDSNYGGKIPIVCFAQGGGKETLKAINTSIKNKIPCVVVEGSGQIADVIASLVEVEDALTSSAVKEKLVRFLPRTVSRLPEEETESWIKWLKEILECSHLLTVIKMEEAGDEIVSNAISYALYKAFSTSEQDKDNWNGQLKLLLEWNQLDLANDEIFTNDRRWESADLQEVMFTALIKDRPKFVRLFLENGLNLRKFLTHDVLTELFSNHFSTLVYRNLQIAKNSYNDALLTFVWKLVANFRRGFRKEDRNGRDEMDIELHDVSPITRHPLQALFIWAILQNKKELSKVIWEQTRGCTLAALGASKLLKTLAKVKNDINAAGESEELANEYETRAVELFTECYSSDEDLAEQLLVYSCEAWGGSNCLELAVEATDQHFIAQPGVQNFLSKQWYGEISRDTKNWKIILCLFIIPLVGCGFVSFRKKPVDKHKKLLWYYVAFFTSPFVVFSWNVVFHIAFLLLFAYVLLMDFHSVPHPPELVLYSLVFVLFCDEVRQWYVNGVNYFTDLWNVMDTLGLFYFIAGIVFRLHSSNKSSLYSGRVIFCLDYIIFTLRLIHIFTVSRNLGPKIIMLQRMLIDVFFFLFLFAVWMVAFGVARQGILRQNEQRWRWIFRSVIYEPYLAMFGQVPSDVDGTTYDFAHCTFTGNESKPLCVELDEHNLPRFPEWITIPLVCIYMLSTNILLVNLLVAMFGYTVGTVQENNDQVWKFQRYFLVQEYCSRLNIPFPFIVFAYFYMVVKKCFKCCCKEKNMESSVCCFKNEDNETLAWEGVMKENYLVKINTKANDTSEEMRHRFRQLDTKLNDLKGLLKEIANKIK
Sequence of Transient receptor potential cation channel subfamily M member 8 (Homo sapiens), Q7Z2W7 [L1009R] (Q7Z2W7 whole entry L1009R): as the sequence (Q7Z2W7 whole entry Y745H) above, with H745Y, L1009R counted along it

Consider `CC1CCC(C(C)C)C(O)C1` (stereo not given) [MENTHOL], for which the inhibition entry in assay [1] and in assay [4] was “inactive” throughout. Besides, the inhibition entry in assay [2] is “Active”. Further, the Kd in assay [3] was 220 µM. Besides, the EC50 in assay [5] was determined as 477 µM.

The values above are taken from ChEMBL document CHEMBL1240324, “TRPM8 voltage sensor mutants reveal a mechanism for integrating thermal and chemical stimuli” (Nat Chem Biol, 2007).
